Experimental data as given in patent publication US7524853B2 (Solvay Pharmaceuticals B.V., priority 2003, dated 2009).

Tests used:
Type in all cases: cell-based
[1] = molecular target: T1, 17β-hydroxysteroid dehydrogenase type 1 (17β-HSD type 1) (Homo sapiens, UniProt P14061); experiment: Inhibition of 17β-HSD type 1 in MCF-7 cells stably expressing the isoenzyme (tritium labeled estrone conversion, HPLC); details: MCF7, MCF-7 cells expressing 17β-HSD type 1, 2 nM tritium labeled estrone; for inhibition at 1 µM: 1 μM test compound, read-out: % Inhibition HSD1 1 μM; for inhibition at 10 µM: 10 μM test compound, read-out: % Inhibition HSD1 10 μM
T1 construct: expressed in transfected cells; host or cells: MCF-7
T1 sequence (P14061 1-328): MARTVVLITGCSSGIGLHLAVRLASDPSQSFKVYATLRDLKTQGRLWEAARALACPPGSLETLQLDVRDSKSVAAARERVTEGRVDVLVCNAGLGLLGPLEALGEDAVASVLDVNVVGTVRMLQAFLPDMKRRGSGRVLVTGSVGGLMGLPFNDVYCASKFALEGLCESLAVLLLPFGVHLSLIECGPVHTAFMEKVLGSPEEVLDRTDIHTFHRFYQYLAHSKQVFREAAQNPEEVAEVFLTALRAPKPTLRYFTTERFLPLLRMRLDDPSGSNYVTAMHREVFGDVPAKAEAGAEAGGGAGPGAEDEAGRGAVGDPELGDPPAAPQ
Text: (§1) Biological Testing Materials and Methods 1. Inhibition of the 17β-hydroxysteroid dehydrocienase type 1, type 2 and type 3 enzyme
(§2) The compounds were screened in respect of 17β-HSD enzyme activity in vitro on established MCF-7 cell lines, each stably expressing one of the respective 17β-HSD isoenzymes. The interconversion of substrate by each isoenzyme and the 17β-HSD inhibiting activity of chemical compounds in these cell lines were detected by HPLC system.
(§3) Varying amounts of the test compounds were incubated in the growth medium of the 17β-HSD expressing cells together tritium labeled substrate (2 nM estrone for 17β-HSD type 1; 2 nM estradiol for 17β-HSD type 2; and 2 nM androstenedione for 17β-HSD type 3). The medium samples were removed after exact incubation time and the reaction is stopped by trichloroacetic acid (TCA). The samples were analyzed by HPLC-coupled flow scintillation analysis.
(§4) For each enzyme type, the HSD-inhibiting activity of an individual test compound was calculated by comparing the conversion of a control sample without any test compound (referred to as “Negative Control”) to the (reduced) conversion of the test sample containing the particular compound to be tested (referred to as “Test Sample”).
(§5) Two concentrations of each compound were used. The number of the compound refers to the numbers indicated in the Experimental Section.

[2] = molecular target: T2, 17β-hydroxysteroid dehydrogenase type 2 (17β-HSD type 2) (Homo sapiens, UniProt P37059); experiment: Inhibition of 17β-HSD type 2 in MCF-7 cells stably expressing the isoenzyme (tritium labeled estradiol conversion, HPLC); details: MCF7, MCF-7 cells expressing 17β-HSD type 2, 2 nM tritium labeled estradiol; for inhibition at 1 µM: 1 μM test compound, read-out: % Inhibition HSD2 1 μM; for inhibition at 10 µM: 10 μM test compound, read-out: % Inhibition HSD2 10 μM
T2 construct: expressed in transfected cells; host or cells: MCF-7
T2 sequence (P37059 1-387): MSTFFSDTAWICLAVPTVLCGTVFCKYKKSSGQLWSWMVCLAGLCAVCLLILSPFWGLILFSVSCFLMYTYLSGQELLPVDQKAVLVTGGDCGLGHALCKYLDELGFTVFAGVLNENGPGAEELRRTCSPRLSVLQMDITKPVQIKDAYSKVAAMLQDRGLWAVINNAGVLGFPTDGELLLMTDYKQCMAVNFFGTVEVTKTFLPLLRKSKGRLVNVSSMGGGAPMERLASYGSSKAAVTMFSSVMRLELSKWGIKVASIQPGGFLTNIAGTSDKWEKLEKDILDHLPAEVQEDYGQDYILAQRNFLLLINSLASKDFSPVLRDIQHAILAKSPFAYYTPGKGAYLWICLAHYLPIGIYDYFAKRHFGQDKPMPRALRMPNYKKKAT
Text: as §1, §2, §3, §4, §5

[3] = molecular target: T3, 17β-hydroxysteroid dehydrogenase type 3 (17β-HSD type 3) (Homo sapiens, UniProt P37058); experiment: Inhibition of 17β-HSD type 3 in MCF-7 cells stably expressing the isoenzyme (tritium labeled androstenedione conversion, HPLC); details: MCF7, MCF-7 cells expressing 17β-HSD type 3, 2 nM tritium labeled androstenedione; for inhibition at 1 µM: 1 μM test compound, read-out: % Inhibition HSD3 1 μM; for inhibition at 10 µM: 10 μM test compound, read-out: % Inhibition HSD3 10 μM
T3 construct: expressed in transfected cells; host or cells: MCF-7
T3 sequence (P37058 1-310): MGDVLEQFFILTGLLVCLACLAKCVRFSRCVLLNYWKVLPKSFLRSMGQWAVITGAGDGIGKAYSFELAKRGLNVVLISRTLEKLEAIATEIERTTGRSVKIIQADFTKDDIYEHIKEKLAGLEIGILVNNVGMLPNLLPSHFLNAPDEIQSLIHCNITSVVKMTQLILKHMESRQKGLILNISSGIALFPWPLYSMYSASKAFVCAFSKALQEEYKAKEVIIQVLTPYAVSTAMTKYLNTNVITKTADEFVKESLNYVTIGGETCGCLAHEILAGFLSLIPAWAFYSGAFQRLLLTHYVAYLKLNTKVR
Text: as §1, §2, §3, §4, §5

COc1ccc(-c2nc3sc4c(c3c(=O)n2Cc2ccccc2)CCCC4=O)cc1 [No. 13, 3-Benzyl-2-(p-methoxyphenyl)-6,7-dihydro-3H,5H-benzo[4,5]thieno[2,3-d]pyrimidine-4,8-dione]
inhibition at 1 µM [1]: 28% | inhibition at 10 µM [1]: 43.6% | inhibition at 1 µM [2]: 19.5% | inhibition at 10 µM [2]: 19.9% | inhibition at 1 µM [3]: 3% | inhibition at 10 µM [3]: 59.1%

COc1ccc(-c2nc3sc4c(c3c(=O)n2Cc2ccccc2)CCC(C=O)=C4Cl)cc1 [No. 14]
inhibition at 1 µM [1]: 8.6% | inhibition at 10 µM [1]: 29.7% | inhibition at 1 µM [2]: 0.5% | inhibition at 10 µM [2]: 18.8% | inhibition at 1 µM [3]: 22.7% | inhibition at 10 µM [3]: 80.8%

CCOC(=O)C1=Cc2sc3nc(-c4ccc(OC)cc4)n(Cc4ccccc4)c(=O)c3c2CC1 [No. 15, 3-Benzyl-2-(p-methoxyphenyl)-4-oxo-3,4,5,6-tetrahydro-benzo[4,5]thieno[2,3-d]pyrimidine-7-carboxylic acid ethyl ester]
inhibition at 1 µM [1]: -9.9% | inhibition at 10 µM [1]: -6.5% | inhibition at 1 µM [2]: -5.5% | inhibition at 10 µM [2]: 7.3% | inhibition at 1 µM [3]: 18.5% | inhibition at 10 µM [3]: 61.2%

CCSC1=C(C=O)CCc2c1sc1nc(-c3ccc(OC)cc3)n(Cc3ccccc3)c(=O)c21 [No. 16, 3-Benzyl-8-ethylsulfanyl-2-(p-methoxyphenyl)-4-oxo-3,4,5,6-tetrahydro-benzo[4,5]thieno[2,3-d]pyrimidine-7-carbaldehyde]
inhibition at 1 µM [1]: 1.7% | inhibition at 10 µM [1]: 33.5% | inhibition at 1 µM [2]: 5% | inhibition at 10 µM [2]: 20.1% | inhibition at 1 µM [3]: 75.7% | inhibition at 10 µM [3]: 100%

COc1ccc(-c2nc3sc4cc(C=O)ccc4c3c(=O)n2Cc2ccccc2)cc1 [No. 17, 3-Benzyl-2-(p-methoxyphenyl)-4-oxo-3,4-dihydro-benzo[4,5]thieno[2,3-d]pyrimidine-7-carbaldehyde]
inhibition at 1 µM [1]: 18.1% | inhibition at 10 µM [1]: 48.3% | inhibition at 1 µM [2]: -5.4% | inhibition at 10 µM [2]: 20.9% | inhibition at 1 µM [3]: 43.5% | inhibition at 10 µM [3]: 100%

CCSc1c(C=O)ccc2c1sc1nc(-c3ccc(OC)cc3)n(Cc3ccccc3)c(=O)c12 [No. 18, 3-Benzyl-8-ethylsulfanyl-2-(p-methoxyphenyl)-4-oxo-3,4-dihydro-benzo[4,5]thieno[2,3-d]pyrimidine-7-carbaldehyde]
inhibition at 1 µM [1]: 12.1% | inhibition at 10 µM [1]: 25.9% | inhibition at 1 µM [2]: 0% | inhibition at 10 µM [2]: 15.1% | inhibition at 1 µM [3]: 66.1% | inhibition at 10 µM [3]: 100%

CCSC1=C(CO)CCc2c1sc1nc(-c3ccc(OC)cc3)n(Cc3ccccc3)c(=O)c21 [No. 19]
inhibition at 1 µM [1]: 10.2% | inhibition at 10 µM [1]: 32% | inhibition at 1 µM [2]: 4.9% | inhibition at 10 µM [2]: 21.1% | inhibition at 1 µM [3]: 32.7% | inhibition at 10 µM [3]: 100%

COc1ccc(-c2nc3sc4c(Oc5ccccc5)c(CO)ccc4c3c(=O)n2Cc2ccccc2)cc1 [No. 20, 3-Benzyl-7-hydroxymethyl-2-(p-methoxyphenyl)-8-phenoxy-3H-benzo[4,5]thieno[2,3-d]pyrimidin-4-one]
inhibition at 1 µM [1]: 26% | inhibition at 10 µM [1]: 37.5% | inhibition at 1 µM [2]: -1.7% | inhibition at 10 µM [2]: 16.6% | inhibition at 1 µM [3]: 9.9% | inhibition at 10 µM [3]: 61.1%

COc1ccc(-c2nc3sc4c(Oc5ccccc5)c(C)ccc4c3c(=O)n2Cc2ccccc2)cc1 [No. 21, 3-Benzyl-7-methyl-2-(p-methoxyphenyl)-8-phenoxy-3H-benzo[4,5]thieno[2,3-d]pyrimidin-4-one]
inhibition at 1 µM [1]: -1.8% | inhibition at 10 µM [1]: -4.4% | inhibition at 1 µM [2]: -0.8% | inhibition at 10 µM [2]: 12.7% | inhibition at 1 µM [3]: -4.8% | inhibition at 10 µM [3]: 6.4%

COc1ccc(-c2nc3sc4c(c3c(=O)n2-c2ccccc2)CCCC4)cc1 [No. 22, 3-Phenyl-2-(p-methoxyphenyl)-5,6,7,8-tetrahydro-3H-benzo[4,5]thieno[2,3-d]pyrimidin-4-one]
inhibition at 1 µM [1]: 26% | inhibition at 10 µM [1]: 38.1% | inhibition at 1 µM [2]: 13% | inhibition at 10 µM [2]: 14.9% | inhibition at 1 µM [3]: -1.8% | inhibition at 10 µM [3]: 28.6%
